Test results: the NIST ThermoML archive (doi:10.1016/j.fluid.2006.05.032)

Assay: xn = mol fraction of the nth substance listed
Conditions: Liquid, Vibrating tube method

Cc1ccccc1 [toluene] + CCCO
mass density [kg/m3]
Conditions	x2 = 0	x2 = 0.125	x2 = 0.25	x2 = 0.375	x2 = 0.5	x2 = 0.625	x2 = 0.75	x2 = 0.875
323.15 K, 35000 kPa	866	859.3	853.3	847.1	840.6	833.4	825.6	816.4
323.15 K, 40000 kPa	869.4	862.8	856.5	850.3	843.9	836.7	829	819.8
323.15 K, 45000 kPa	872.5	865.9	859.8	853.6	847.1	840	832.2	822.9
323.15 K, 50000 kPa	875.7	869.2	863	856.8	850.3	843.1	835.3	826
323.15 K, 55000 kPa	878.7	872.2	866	859.8	853.3	846.1	838.3	829
323.15 K, 60000 kPa	881.7	875.1	869	862.7	856.2	848.9	841.1	831.9
323.15 K, 65000 kPa	884.6	878.1	871.9	865.6	859.1	851.8	844	834.6
333.15 K, 100 kPa	828.8	822	815.6	809.5	803.2	796.3	788.7	779.8
333.15 K, 5000 kPa	833.5	826.8	820.5	814.3	808	801.1	793.4	784.4
333.15 K, 10000 kPa	838.2	831.4	825	818.9	812.6	805.8	798.1	789.1
333.15 K, 15000 kPa	842.6	835.7	829.4	823.3	817	810.1	802.4	793.4
333.15 K, 20000 kPa	846.6	839.8	833.6	827.4	821.1	814.2	806.6	797.5
333.15 K, 25000 kPa	850.5	843.8	837.6	831.4	825	818.2	810.5	801.4
333.15 K, 30000 kPa	854.3	847.6	841.4	835.2	828.8	821.9	814.1	805
333.15 K, 35000 kPa	857.9	851.3	845	838.9	832.5	825.6	817.8	808.6
333.15 K, 40000 kPa	861.4	854.8	848.6	842.4	836	829.1	821.2	812
333.15 K, 45000 kPa	864.8	858.2	852	845.8	839.4	832.4	824.6	815.4
333.15 K, 50000 kPa	868.1	861.5	855.2	849	842.7	835.6	827.8	818.6
333.15 K, 55000 kPa	871.4	864.6	858.4	852.2	845.8	838.8	831	821.9
333.15 K, 60000 kPa	874.5	867.8	861.4	855.3	848.9	841.8	834	824.8
333.15 K, 65000 kPa	877.5	870.7	864.5	858.3	851.9	844.8	836.9	827.7
343.15 K, 100 kPa	819.4	812.2	805.5	799.4	793.3	786.5	779.1	770.7
343.15 K, 5000 kPa	824.5	817.3	810.8	804.6	798.4	791.7	784.2	775.8
343.15 K, 10000 kPa	829.3	822.3	815.8	809.6	803.4	796.6	789.1	780.6
343.15 K, 15000 kPa	833.9	826.9	820.4	814.3	808.1	801.3	793.8	785.1
343.15 K, 20000 kPa	838.1	831.3	824.9	818.7	812.4	805.7	798.1	789.5
343.15 K, 25000 kPa	842.3	835.5	829.1	822.9	816.6	809.8	802.2	793.5
343.15 K, 30000 kPa	846.2	839.5	833.1	827	820.7	813.9	806.2	797.4
343.15 K, 35000 kPa	850.1	843.2	837	830.7	824.5	817.6	809.9	801.1
343.15 K, 40000 kPa	853.7	847	840.6	834.4	828.2	821.4	813.5	804.6
343.15 K, 45000 kPa	857.4	850.4	844.3	838	831.8	824.9	817.2	808.2
343.15 K, 50000 kPa	860.8	853.9	847.7	841.4	835.2	828.2	820.5	811.4
343.15 K, 55000 kPa	864.2	857.1	851	844.8	838.5	831.5	823.7	814.7
343.15 K, 60000 kPa	867.4	860.5	854.3	848	841.8	834.8	826.9	817.7
343.15 K, 65000 kPa	870.3	863.6	857.4	851.1	844.9	837.8	829.9	820.7
353.15 K, 100 kPa	809.7	802.7	795.9	789.9	783.8	777	769	760.6
353.15 K, 5000 kPa	815.1	808	801.4	795.3	789.2	782.3	774.4	766.1
353.15 K, 10000 kPa	820.3	813.3	806.7	800.6	794.6	787.7	779.6	771.2
353.15 K, 15000 kPa	825.3	818.2	811.6	805.5	799.5	792.6	784.6	776.2
353.15 K, 20000 kPa	829.9	822.9	816.3	810.2	804.2	797.3	789.1	780.7
353.15 K, 25000 kPa	834	827.3	820.8	814.7	808.7	801.7	793.5	784.9
353.15 K, 30000 kPa	838.2	831.6	825	818.9	813	805.9	797.6	789
353.15 K, 35000 kPa	842.2	835.6	829.1	822.9	817	809.9	801.6	792.9
353.15 K, 40000 kPa	846.1	839.4	833	826.8	820.8	813.7	805.4	796.6
353.15 K, 45000 kPa	849.8	843.2	836.7	830.6	824.6	817.4	809.1	800.3
353.15 K, 50000 kPa	853.3	846.8	840.3	834.2	828.1	820.9	812.5	803.7
353.15 K, 55000 kPa	856.7	850.2	843.8	837.6	831.6	824.4	815.8	807
353.15 K, 60000 kPa	860.1	853.6	847.2	840.9	835	827.7	818.9	810.3
353.15 K, 65000 kPa	863.5	856.8	850.4	844.2	838.3	830.9	822.5	813.6
